Measurements: patent publication US20260315507A1, “COMBINATION OF VITAMINS AND OLIGOSACCHARIDES FOR ENHANCING BONE GROWTH AND/OR BONE STRENGTH” (SOCIÉTÉ DES PRODUITS NESTLÉ S.A., priority 2023, published 2026)

Key:
[1] = system: osteocalcin mRNA in MC3T3-E1 subclone 4 cells; experiment: Osteocalcin mRNA levels (qPCR) in pre-osteoblastic cell line; assay type: cell-based; settings: 21 days of differentiation, without ascorbic acid; 3 μM menaquinone-7, 1 nM 1α,25-dihydroxyvitamin D3 or 100 nM all-trans-retinoic acid; FIG. 1B
From the text: (§1) The pre-osteoblastic cell line MC3T3-E1 subclone 4 (CRL-2593) was purchased from ATCC (Manassas; Virginia, USA). Cells were maintained in growth medium (GM) composed of ascorbic acid-free αMEM (ThermoFisher Scientific), supplemented with 10% fetal calf serum (FCS, ThermoFisher Scientific) and 1% penicillin/streptomycin. All culture media were refreshed every 2-3 days. Cells were passaged with trypsin/EDTA solution at less than 80% confluence. To induce differentiation into osteoblasts, cells were seeded at 5×10^4 cells/cm^2 and grown to confluency in GM for 24 h. Then, the medium was switched to differentiation medium (DM) composed of GM supplemented with 10 mM β-glycerophosphate and treatment solutions of interest. Ascorbic acid 50 μg/ml was also added to the DM depending on the experiment.
MC3T3-E1 subclone 4 cells were differentiated for 21 days (in DM without ascorbic acid except for the positive control) or 28 days (in DM containing ascorbic acid). Cells were then collected for gene expression analysis. […] RNA concentrations were measured using the DropSense96 (TRINEAN, Gentbrugge, Belgium).
cDNAs were synthetized using High-Capacity cDNA Reverse Transcription Kit (AppliedBiosystems; Waltham, Massachusetts, USA) according to the manufacturer's instructions. […] The relative gene expression was evaluated via the 2^-ΔCt method.

[2] = system: MC3T3-E1 subclone 4 cells; experiment: Osteoblast alkaline phosphatase (ALP) activity in pre-osteoblastic cell line; assay type: cell-based; settings: 7 days of differentiation, without ascorbic acid; 3 μM menaquinone-7, 1 nM 1α,25-dihydroxyvitamin D3 or 100 nM all-trans-retinoic acid; FIG. 1A
From the text: as §1, with “experiment. […]” for “experiment.”
After 7 days of differentiation, cells were then collected for alkaline phosphatase (ALP) activity measurement as described previously with minor modifications. […] Enzymatic reaction was monitored at 405 nm after 4-Nitrophenyl phosphate disodium salt hexahydrate addition. Michaelis-Menten kinetics were evaluated at 30° C. for 30 min. […] The activity value was normalized by protein content measured via the Pierce BCA Protein Assay Kit (ThermoFisher Scientific) according to the manufacturer's instructions.

Row | SMILES | effect on osteocalcin expression (mRNA) [1] | effect on ALP activity (marker of osteoblast differentiation) [2]
1 | CC1=C(/C=C/C(C)=C/C=C/C(C)=C/C(=O)O)C(C)(C)CCC1 [vitamin A, all-trans-retinoic acid] | no significant effect | 
2 | C=C1/C(=C\C=C2/CCC[C@]3(C)[C@@H]([C@H](C)CCCC(C)(C)O)CC[C@@H]23)C[C@@H](O)C[C@@H]1O [vitamin D, 1α,25-Dihydroxyvitamin D3] | no significant effect | 
3 | CC(C)=CCC/C(C)=C/CC/C(C)=C/CC/C(C)=C/CC/C(C)=C/CC/C(C)=C/CC/C(C)=C/CC1=C(C)C(=O)c2ccccc2C1=O [vitamin K2, menaquinone-7] |  | no significant effect
